{"source": "patent EP2354120A1", "about": "“Synthesis of acyloxyalkyl carbamate prodrugs and intermediates thereof” (XenoPort, Inc., priority 2003, dated 2005)", "key": {"Caco-2 cells": {"tested_on": "Caco-2 cells", "conditions": "human, Caco-2, 200 uM", "method": "Caco-2 cells obtained from continuous culture (passage less than 28) were seeded at high density onto Transwell polycarbonate filters. […] Inserts were placed in 12 or 24 well plates containing buffer and incubated for 30 min at 37C°. Prodrug (200 µM) was added to the apical or basolateral compartment (donor) and concentrations of prodrug and/or released parent drug in the opposite compartment (receiver) were determined at intervals over 1 hour using LC/MS/MS. Values of apparent permeability (Papp) were calculated using the equation: Papp = Vr (dC/dt)//(ACo) [formula]\nHere Vr is the volume of the receiver compartment in mL; dC/dt is the total flux of prodrug and parent drug (µM/s), determined from the slope of the plot of concentration in the receiver compartment versus time; Co is the initial concentration of prodrug in µM; A is the surface area of the membrane in cm^2."}, "pancreatin": {"tested_on": "pancreatin", "type": "in vitro ADME, porcine", "conditions": "5 µM", "description": "The reaction was stopped by addition of 2 volumes of methanol."}, "[1]": {"type": "in vitro ADME", "conditions": "Caco-2 S9 (0.5 mg protein per mL), 5 µM, 37°C, after 60 min", "method": "(§1) The stabilities of prodrugs were evaluated in one or more in vitro systems using a variety of tissue preparations following methods known in the art. […] Tissues were obtained from commercial sources (e.g., Pel-Freez Biologicals, Rogers, AR, or GenTest Corporation, Woburn, MA). […] Each preparation was incubated with test compound at 37°C for one hour. Aliquots (50 µL) were removed at 0, 30, and 60 min and quenched with 0.1% trifluoroacetic acid in acetonitrile. Samples were then centrifuged and analyzed by LC/MS/MS (see Example 86 below for method details). […] After centrifugation at 14,000 rpm for 10 min, the supernatant was removed and analyzed by LC/MS/MS. • Caco-2 Homogenate S9 Stability: Caco-2 cells were grown for 21 days prior to harvesting. Culture medium was removed and cell monolayers were rinsed and scraped off into ice-cold 10 mM sodium phosphate/0.15 M potassium chloride, pH 7.4. Cells were lysed by sonication at 4°C using a probe sonicator. Lysed cells were then transferred into 1.5 mL centrifuge vials and centrifuged at 9000 g for 20 min at 4°C. […]\n(§2) For stability studies, prodrug (5 µM) was incubated in Caco-2 homogenate S9 fraction (0.5 mg protein per mL) for 60 min at 37°C. Concentrations of intact prodrug and released baclofen were determined at zero time and 60 minutes using LC/MS/MS."}, "[2]": {"type": "in vitro ADME", "conditions": "Human Plasma, 2.0 µM, 37°C, after 60 min", "method": "as §1, §2"}, "[3]": {"type": "in vitro ADME", "conditions": "Rat Liver S9 (0.5 mg/mL), 2.0 µM, NADPH, 37°C, after 60 min", "method": "as §1, §2"}, "[4]": {"type": "in vitro ADME", "conditions": "Human Liver S9 (0.5 mg/mL), 2.0 µM, NADPH, 37°C, after 60 min", "method": "as §1, §2"}, "[5]": {"type": "physicochemical", "conditions": "after 60 min", "method": "The chemical stability of prodrugs in aqueous buffers at pH's of 2.0, 7.4 and 8.0 were also measured. […] Each preparation was incubated with test compound at 37°C for one hour. Aliquots (50 µL) were removed at 0, 30, and 60 min and quenched with 0.1% trifluoroacetic acid in acetonitrile. Samples were then centrifuged and analyzed by LC/MS/MS (see Example 86 below for method details)."}, "[6]": {"type": "in vitro ADME", "conditions": "Rat Plasma, 2.0 µM, 37°C, after 60 min", "method": "as §1, §2"}, "[7]": {"conditions": "oral; 2 mg t.i.d R-baclofen equivalent to 10 mg t.i.d. racemic baclofen; cited from earlier work"}, "[8]": {"conditions": "1 % (w/v) pancreatin, pH 7.5, 37 °C, after 60 min"}}, "note": "Read-outs that look alike come from different tables or passages of the source."}
{"compound": "CC(=O)OCOC(=O)NC[C@H](CC(=O)[O-])c1ccc(Cl)cc1.[Na+]", "note": "[(10), Sodium 4-[(Acetoxymethoxy)carbonylamino]-(3R)-(4-chlorophenyl)-butanoate]", "values": [{"measurement": "Ratio A-B/B-A", "setting": "Caco-2 cells", "result": 1.2}]}
{"compound": "O=C([O-])C[C@@H](CNC(=O)OCOC(=O)c1ccccc1)c1ccc(Cl)cc1.[Na+]", "note": "[(12)]", "values": [{"measurement": "Ratio A-B/B-A", "setting": "Caco-2 cells", "result": 5.9}]}
{"compound": "O=C(O)C[C@@H](CNC(=O)OCOC(=O)C1CCCCC1)c1ccc(Cl)cc1", "note": "[(14), Sodium 4-[(Cyclohexanecarboxymethoxy)carbonylaminol-(3R)-(4-chlorophenyl)-butanoate]", "values": [{"measurement": "% of Baclofen Released", "setting": "pancreatin; [8]", "result": 101, "unit": "%"}, {"measurement": "% of Prodrug Remaining", "setting": "pancreatin; [8]", "result": 2, "unit": "%"}, {"measurement": "Ratio A-B/B-A", "setting": "Caco-2 cells", "result": 4.1}]}
{"compound": "CCCC(=O)OCOC(=O)NC[C@H](CC(=O)O)c1ccc(Cl)cc1", "note": "[(16), Sodium 4-[(Butanoyloxymethoxy)carbonylamino]-(3R)-(4-chlorophenyl)-butanoate]", "values": [{"measurement": "% of Baclofen Released", "setting": "pancreatin; pig, pancreatin, 1 h, pH 7.5", "result": 84, "unit": "%"}, {"measurement": "% of Prodrug Remaining", "setting": "pancreatin; pig, pancreatin, 1 h, pH 7.5", "result": 1, "unit": "%"}]}
{"compound": "CC(C)C(=O)OCOC(=O)NC[C@H](CC(=O)O)c1ccc(Cl)cc1", "note": "[(18), Sodium 4-[(Isobutanoyloxymethoxy)carbonylamino]-(3R)-(4-chlorophenyl)-butanoate]", "values": [{"measurement": "% of Baclofen Released", "setting": "pancreatin; pig, pancreatin, 1 h, pH 7.5", "result": 91, "unit": "%"}, {"measurement": "% of Prodrug Remaining", "setting": "pancreatin; pig, pancreatin, 1 h, pH 7.5", "result": 2, "unit": "%"}]}
{"compound": "CCCC(=O)OC(OC(=O)NC[C@H](CC(=O)O)c1ccc(Cl)cc1)C(C)C", "note": "(stereo partly drawn) [(27), Sodium 4-[(1-Butanoyloxyisobutoxy)carbonylamino]-(3R)-(4-chlorophenyl)-butanoate]", "values": [{"measurement": "% of Baclofen Released", "setting": "pancreatin; [8]", "result": 9, "unit": "%"}, {"measurement": "% of Prodrug Remaining", "setting": "pancreatin; [8]", "result": 71, "unit": "%"}, {"measurement": "Ratio A-B/B-A", "setting": "Caco-2 cells", "result": 6.9}]}
{"compound": "CC(=O)OC(C)OC(=O)NC[C@H](CC(=O)O)c1ccc(Cl)cc1", "note": "(stereo partly drawn) [(30), Sodium 4-[(1-Acetoxyethoxy)carbonylamino]-(3R)-(4-chlorophenyl)-butanoate]", "values": [{"measurement": "% of Baclofen Released", "setting": "pancreatin; pig, pancreatin, 1 h, pH 7.5", "result": 9, "unit": "%"}, {"measurement": "% of Prodrug Remaining", "setting": "pancreatin; pig, pancreatin, 1 h, pH 7.5", "result": 90, "unit": "%"}]}
{"compound": "CCCC(=O)OC(C)OC(=O)NC[C@H](CC(=O)[O-])c1ccc(Cl)cc1.[Na+]", "note": "(stereo partly drawn) [(32), Sodium 4-[(1-Butanoyloxyethoxy)carbonylamino]-(3R)-(4-chlorophenyl)-butanoate]", "values": [{"measurement": "Ratio A-B/B-A", "setting": "Caco-2 cells", "result": 7.6}]}
{"compound": "CC(OC(=O)NC[C@H](CC(=O)O)c1ccc(Cl)cc1)OC(=O)C1CCCCC1", "note": "(stereo partly drawn) [(38), Sodium 4-[(1-Cyclohexylcarbonyloxyethoxy)carbonylamino]-(3R)-(4-chlorophenyl)-butanoate]", "values": [{"measurement": "Ratio A-B/B-A", "setting": "Caco-2 cells", "result": 1.1}]}
{"compound": "CC(OC(=O)NC[C@H](CC(=O)[O-])c1ccc(Cl)cc1)OC(=O)c1ccccc1.[Na+]", "note": "(some centres unmarked) [(40)]", "values": [{"measurement": "% of Baclofen Released", "setting": "[1]", "result": 85, "unit": "%"}, {"measurement": "% of Prodrug Remaining", "setting": "[1]", "result": 15, "unit": "%"}, {"measurement": "% of Baclofen Released", "setting": "[2]", "result": 2, "unit": "%"}, {"measurement": "% of Prodrug Remaining", "setting": "[2]", "result": 101, "unit": "%"}, {"measurement": "% of Baclofen Released", "setting": "[3]", "result": 96, "unit": "%"}, {"measurement": "% of Prodrug Remaining", "setting": "[3]", "result": 8, "unit": "%"}, {"measurement": "% of Baclofen Released", "setting": "[4]", "result": 105, "unit": "%"}, {"measurement": "% of Prodrug Remaining", "setting": "[4]", "result": 1, "unit": "%"}, {"measurement": "% of Baclofen Released", "setting": "pancreatin; pig, pancreatin, 1 h, pH 7.5", "result": 58, "unit": "%"}, {"measurement": "% of Prodrug Remaining", "setting": "pancreatin; pig, pancreatin, 1 h, pH 7.5", "result": 43, "unit": "%"}, {"measurement": "% of Baclofen Released", "setting": "[5]; aqueous buffer pH 2.0, 37°C", "result": 0, "unit": "%"}, {"measurement": "% of Prodrug Remaining", "setting": "[5]; aqueous buffer pH 2.0, 37°C", "result": 103, "unit": "%"}, {"measurement": "% of Baclofen Released", "setting": "[5]; aqueous buffer pH 7.4, 37°C", "result": 0, "unit": "%"}, {"measurement": "% of Prodrug Remaining", "setting": "[5]; aqueous buffer pH 7.4, 37°C", "result": 100, "unit": "%"}, {"measurement": "% of Baclofen Released", "setting": "[5]; aqueous buffer pH 8.0, 37°C", "result": 2, "unit": "%"}, {"measurement": "% of Prodrug Remaining", "setting": "[5]; aqueous buffer pH 8.0, 37°C", "result": 107, "unit": "%"}, {"measurement": "% of Baclofen Released", "setting": "[6]", "result": 17, "unit": "%"}, {"measurement": "% of Prodrug Remaining", "setting": "[6]", "result": 72, "unit": "%"}]}
{"compound": "CC(C)C(OC(=O)NC[C@H](CC(=O)O)c1ccc(Cl)cc1)OC(=O)C(C)(C)C", "note": "(stereo partly drawn) [(43), Sodium 4-[(1-Pivaloyloxyisobutoxy)carbonylamino]-(3R)-(4-chlorophenyl)-butanoate]", "values": [{"measurement": "% of Baclofen Released", "setting": "pancreatin; [8]", "result": 4, "unit": "%"}, {"measurement": "% of Prodrug Remaining", "setting": "pancreatin; [8]", "result": 82, "unit": "%"}, {"measurement": "Ratio A-B/B-A", "setting": "Caco-2 cells", "result": 2.3}]}
{"compound": "CCC(=O)OC(OC(=O)NC[C@H](CC(=O)[O-])c1ccc(Cl)cc1)C(C)C.[Na+]", "note": "(stereo partly drawn) [(48), Sodium 4-[(1-Propanoyloxyisobutoxy)carbonylamino]-(3R)-(4-chlorophenyl)-butanoate]", "values": [{"measurement": "Ratio A-B/B-A", "setting": "Caco-2 cells", "result": 6.5}]}
{"compound": "CCOC(C)(OCC)C(=O)OCOC(=O)NC[C@H](CC(=O)[O-])c1ccc(Cl)cc1.[Na+]", "note": "[(51), Sodium 4-[(2,2-Diethoxypropanoyloxymethoxy)carbonylamino]-(3R)-(4-chlorophenyl)-butanoate]", "values": [{"measurement": "Ratio A-B/B-A", "setting": "Caco-2 cells", "result": 3.0}]}
{"compound": "COc1ccc(C(=O)OCOC(=O)NC[C@H](CC(=O)[O-])c2ccc(Cl)cc2)cc1.[Na+]", "note": "[(53), Sodium 4-[(4-Methoxybenzoloxymethoxy)carbonylamino]-(3R)-(4-chlorophenyl)-butan oate]", "values": [{"measurement": "Ratio A-B/B-A", "setting": "Caco-2 cells", "result": 2.4}]}
{"compound": "O=C(O)C[C@@H](CNC(=O)OCOC(=O)CCc1ccccc1)c1ccc(Cl)cc1", "note": "[(62), Sodium 4-[(3-Phenylpropionoyloxymethoxy)carbonylamino]-(3R)-(4-chlorophenyl)-butanoate]", "values": [{"measurement": "% of Baclofen Released", "setting": "pancreatin; [8]", "result": 79, "unit": "%"}, {"measurement": "% of Prodrug Remaining", "setting": "pancreatin; [8]", "result": 1, "unit": "%"}]}
{"compound": "CCCC(OC(=O)NC[C@H](CC(=O)[O-])c1ccc(Cl)cc1)OC(=O)c1ccccc1.[Na+]", "note": "(stereo partly drawn) [(71), Sodium 4-[(1-Benzoyloxybutoxy)carbonylamino]-(3R)-(4-chlorophenyl)-butanoate]", "values": [{"measurement": "Ratio A-B/B-A", "setting": "Caco-2 cells", "result": 7.1}]}
{"compound": "CCCC(OC(=O)NC[C@H](CC(=O)[O-])c1ccc(Cl)cc1)OC(=O)C(C)C.[Na+]", "note": "(stereo partly drawn) [(72), Sodium 4-[(1-Isobutanoyloxybutoxy)carbonylamino]-(3R)-(4-chlorophenyl)-butanoate]", "values": [{"measurement": "Ratio A-B/B-A", "setting": "Caco-2 cells", "result": 3.5}]}
{"compound": "CCCC(=O)OC(CCC)OC(=O)NC[C@H](CC(=O)[O-])c1ccc(Cl)cc1.[Na+]", "note": "(stereo partly drawn) [(73), Sodium 4-[(1-Butanoyloxybutoxy)carbonylamino]-(3R)-(4-chlorophenyl)-butanoate]", "values": [{"measurement": "Ratio A-B/B-A", "setting": "Caco-2 cells", "result": 3.2}]}
{"compound": "CCCC(=O)OC(CC)OC(=O)NC[C@H](CC(=O)[O-])c1ccc(Cl)cc1.[Na+]", "note": "(stereo partly drawn) [(78), Sodium 4-[(1-Butanoyloxypropoxy)carbonylamino]-(3R)-(4-chlorophenyl)-butanoate]", "values": [{"measurement": "Ratio A-B/B-A", "setting": "Caco-2 cells", "result": 7.9}]}
{"compound": "CCCC(=O)O[C@H](CCC)OC(=O)NC[C@H](CC(=O)O)c1ccc(Cl)cc1", "note": "[(86), Sodium 4-{[(1S)-Butanoyloxybutoxy]carbonylamino}-(3R)-(4-chlorophenyl)-butanoate]", "values": [{"measurement": "% of Baclofen Released", "setting": "pancreatin; [8]", "result": 76, "unit": "%"}, {"measurement": "% of Prodrug Remaining", "setting": "pancreatin; [8]", "result": 4, "unit": "%"}]}
{"compound": "CCCC(=O)O[C@H](OC(=O)NC[C@H](CC(=O)O)c1ccc(Cl)cc1)C(C)C", "note": "[(90), Sodium 4-{[(1R)-Butanoyloxyisobutoxy]carbonylamino}-(3R)-(4-chlorophenyl)-butanoate]", "values": [{"measurement": "% of Baclofen Released", "setting": "pancreatin; [8]", "result": 68, "unit": "%"}, {"measurement": "% of Prodrug Remaining", "setting": "pancreatin; [8]", "result": 9, "unit": "%"}]}
{"compound": "CC(C)C(=O)O[C@@H](OC(=O)NC[C@H](CC(=O)O)c1ccc(Cl)cc1)C(C)C", "note": "[(104), 4-{[(1S)-Isobutanoyloxyisobutoxy]carbonylamino}-(3R)-(4-chlorophenyl) -butanoic Acid]", "values": [{"measurement": "% of Baclofen Released", "setting": "pancreatin; 1 % (w/v) pancreatin, pH 7.5, 37 °C, after 60 min, 60 min", "result": 6, "unit": "%"}, {"measurement": "% of Prodrug Remaining", "setting": "pancreatin; pig, pancreatin, 1 h, pH 7.5", "result": 90, "unit": "%"}]}
{"compound": "NC[C@H](CC(=O)O)c1ccc(Cl)cc1", "note": "[R-baclofen, R-(-)-baclofen]", "values": [{"measurement": "potency relative to orally administered racemic baclofen", "setting": "[7]", "result": "about 5 fold"}]}
